Experimental data published in paper PMC11915030 (ACS Pharmacology & Translational Science, 2025).
Where two headings read alike, the source gives them in different places.

Experiments:
[1] = design: method as in doi:10.3390/scipharm88020025, PMID 17435173, PMID 24712707; settings: water or methanol, cited from earlier work
[2] = test system: nonactivated THP-1 cells; experiment: Inflammatory cytokine assay, nonactivated THP-1 cells (ELISA); settings: 24 h
[3] = test system: LPS-activated THP-1 cells; experiment: Inflammatory cytokine assay, LPS-activated THP-1 cells (ELISA); settings: LPS 0.1 μg/mL, 24 h, three concentrations
Procedure: This assay evaluated the impact of various compounds on cytokine production in THP1 cells stimulated with LPS, as previously described with some modifications.[35] Following treatment, key cytokines were measured to enhance our understanding of the modulatory effects of these compounds on inflammation.
The cells were cultured for 24 h at 37 °C and 5% CO2. After the culture period, the cell free supernatants were harvested and stored at −80 °C until cytokine measurement.
The cytokines IL-1beta, IL-6 and TNF were measured using an ELISA Development Kit (R&D, biotechne, Wiesbaden, Germany) according to the recommendations of the manufacturer.

[4] = molecular target: T1, MOR expressed in human embryonic kidney 293 (HEK-293) cells (Homo sapiens, UniProt P35372); experiment: In vitro radioligand competition binding assay against [3H]DAMGO (Eurofins)
T1 construct: host or cells: HEK-293
T1 sequence (P35372 whole entry): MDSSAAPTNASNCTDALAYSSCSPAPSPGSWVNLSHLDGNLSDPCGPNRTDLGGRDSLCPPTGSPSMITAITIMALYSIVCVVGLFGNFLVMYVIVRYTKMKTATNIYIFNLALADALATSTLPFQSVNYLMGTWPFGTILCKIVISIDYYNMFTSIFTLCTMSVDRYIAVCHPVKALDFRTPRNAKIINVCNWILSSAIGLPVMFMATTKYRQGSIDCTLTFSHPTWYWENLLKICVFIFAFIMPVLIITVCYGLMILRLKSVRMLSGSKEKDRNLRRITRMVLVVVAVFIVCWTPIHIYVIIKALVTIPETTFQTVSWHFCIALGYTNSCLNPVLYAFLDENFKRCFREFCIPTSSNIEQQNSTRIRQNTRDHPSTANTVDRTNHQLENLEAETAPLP
Procedure: The Ki values were determined from the measured IC50 values using the Cheng-Prusoff equation,[39] Ki = IC50/[1 + ([L]/Kd)], where [L] and Kd are the concentration and binding affinity of the radiolabeled ligand in the assay, respectively.

[5] = molecular target: T2, MOR (Homo sapiens, UniProt P35372); experiment: cell-based; settings: for Emax: read-out: Emax for G-protein activation
T2 sequence (P35372 whole entry, the tested form may be a part): as the sequence (P35372 whole entry) above
Procedure: The G-protein pathway activation was performed as previously described.[40] Briefly, the G-protein pathway activation was measured using HitHunter cAMP assays, which quantify cAMP, a secondary messenger involved in G-protein-coupled receptor (GPCR) signaling. This assay employed Enzyme Fragment Complementation (EFC) technology with β-galactosidase (β-Gal) as the reporter enzyme. Upon activation, β-Gal produces a chemiluminescent signal that is detected using a microplate reader, providing a quantitative measure of G-protein pathway activity.

[6] = molecular target: T2, MOR; experiment: cell-based; settings: for Emax: read-out: Emax for β-arrestin recruitment
Procedure: The β-Arrestin recruitment assay was performed as previously described.[41] Briefly, the PathHunter β-Arrestin assay was used to monitor GPCR activation through β-arrestin recruitment. This assay also utilized EFC technology, with β-Gal as the reporter enzyme. In this system, the Enzyme Acceptor (EA) fragment was fused to β-arrestin, and the ProLink (PK) fragment was fused to the GPCR of interest. Upon GPCR activation, EA and PK complementation restored β-Gal activity, generating a chemiluminescent signal that was measured using PathHunter Detection Reagents.

[7] = compared with the reported EC50 of morphine

Row | SMILES | hydrolysis to 4-methylaminoantipyrine (4-MAA) ([1]; acidic conditions) | hydrolysis to 4-methylaminoantipyrine (4-MAA) ([1]; neutral pH) | induction of pro-inflammatory cytokines (TNF, IL-1beta, IL-6) [2] | effect on LPS-induced TNF release [3] | fold less potent against MOR than morphine (Ki) ([4]; compared with the reported Ki of morphine) | IC50 ([4]; read-out: half-maximal inhibitory concentration (IC50), MOR binding) [nM] | Ki ([4]; read-out: inhibitory constant (Ki), MOR binding) [nM] | fold difference to morphine, G-protein activation [5, 7] [fold] | Emax [5] [%] | fold difference to morphine, β-arrestin recruitment [6, 7] [fold] | Emax [6] [%]
1 | Cc1c(N(C)CS(=O)(=O)O)c(=O)n(-c2ccccc2)n1C [metamizole, metamizole sodium] | more rapidly | slowly | did not see any induction | dose-dependent and significant upregulation |  |  |  |  |  |  | 
2 | Cc1c(N(C)Cc2cc3c4c(c2O)O[C@H]2[C@@H](O)C=C[C@H]5[C@@H](C3)N(C)CC[C@@]452)c(=O)n(-c2ccccc2)n1C [metamorphine] |  |  | did not see any induction | no significant effect | about 8 fold | 7.3 | 3 | 22 | 97 | 8 | 70
3 | COc1ccsc1CNCC[C@@]1(c2ccccn2)CCOC2(CCCC2)C1 [TRV-130, oliceridine, reference compound] |  |  |  |  |  |  |  |  | 100 |  | 7.9
4 | CN1CC[C@]23c4c5ccc(O)c4O[C@H]2[C@@H](O)C=C[C@H]3[C@H]1C5 [morphine] |  |  | did not see any induction | no significant effect |  |  |  |  |  |  | 
